Experimental data: PubChem BioAssay (NCI)
“And” between values parts separate entries of the source, which are not always exact repeats. Equal values may be shown once.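 Tested at 5 concentrations; 48 h exposure; 96-well plates; endpoints linearly interpolated, else capped at highest concentration. GI50 marks 50% less growth. TGI is the concentration that stops growth completely.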

How the values were obtained:
Assay in all cases: NCI tumour cell line growth inhibition, 48 h
HCC-2998 colon = test system: HCC-2998 colon
NCI-H522 lung = test system: NCI-H522 lung
HOP-92 NSCLC = test system: HOP-92 NSCLC
ACHN renal = test system: ACHN renal
T-47D breast = test system: T-47D breast
PC-3 prostate = test system: PC-3 prostate
HOP-62 NSCLC = test system: HOP-62 NSCLC
MCF7 breast = test system: MCF7 breast
U251 CNS = test system: U251 CNS
HL-60(TB) leukemia = test system: HL-60(TB) leukemia

| SMILES | GI50 (HCC-2998 colon) | TGI (HCC-2998 colon) | GI50 (NCI-H522 lung) | TGI (NCI-H522 lung) | GI50 (HOP-92 NSCLC) | TGI (HOP-92 NSCLC) | GI50 (ACHN renal) | TGI (ACHN renal) | GI50 (T-47D breast) | TGI (T-47D breast) | GI50 (PC-3 prostate) | TGI (PC-3 prostate) | GI50 (HOP-62 NSCLC) | TGI (HOP-62 NSCLC) | GI50 (MCF7 breast) | TGI (MCF7 breast) | GI50 (U251 CNS) | TGI (U251 CNS) | GI50 (HL-60(TB) leukemia) | TGI (HL-60(TB) leukemia) |
| --- | --- | --- | --- | --- | --- | --- | --- | --- | --- | --- | --- | --- | --- | --- | --- | --- | --- | --- | --- | --- |
| C=CCc1cccc(C=O)c1O | > 100 µM | > 100 µM | > 100 µM | > 100 µM | 0.809 µM | 59 µM | > 100 µM | > 100 µM | 10.2 µM | > 100 µM | 5.86 µM | > 100 µM | > 100 µM | > 100 µM | 7.9 µM | > 100 µM | 6.63 µM | > 100 µM | 10.6 µM | 41 µM |
| C=CCC1(O)c2ccccc2C(=O)c2c(OCC(=O)OCC)ccc(OCC(=O)OCC)c21 (centres undefined) | 44.9 µM | > 100 µM | > 100 µM | > 100 µM | 41.9 µM | > 100 µM | > 100 µM | > 100 µM | > 100 µM | > 100 µM | > 100 µM | > 100 µM | > 100 µM | > 100 µM | > 100 µM | > 100 µM | 81 µM | > 100 µM | 75.9 µM | > 100 µM |
| C[N+]1([O-])C2CCC1CC(OC(=O)C(CO)c1ccccc1)C2 (centres undefined) | – | > 100 µM | – | > 100 µM | – | > 100 µM | – | > 100 µM | – | > 100 µM | – | > 100 µM | – | > 100 µM | – | > 100 µM | – | > 100 µM | – | > 100 µM |
| COC(=O)c1c2c(c(C)[n+]([O-])c1C)C(=O)C(NCc1ccc(OC)cc1)=CC2=O | 2.27 µM | 5.94 µM | 1.95 µM | 4.73 µM | 2.64 µM | 5.91 µM | 2.35 µM | 9.11 µM | 2.12 µM | 5.47 µM | 2.31 µM | 10.4 µM | 3.64 µM | 97.2 µM | 1.41 µM | 3.35 µM | 2.57 µM | 8.82 µM | 1.67 µM | 5.25 µM |
| CC(C)=CC[C@@H]1CC2(CC=C(C)C)C(=O)C(OC3(C(=O)c4ccccc4)C(=O)C4(CC=C(C)C)C[C@@H](CC=C(C)C)C(C)(C)C(CC=C(C)C)(C4=O)C3=O)(C(=O)c3ccccc3)C(=O)C(CC=C(C)C)(C2=O)C1(C)C (some centres undefined) | 1.21 µM | 3.09 µM | 1.07 µM | 3.72 µM | 1.08 µM | 2.86 µM | 1.48 µM | 5.99 µM | 1.19 µM | 4.07 µM | 1.28 µM | 4.36 µM | 1.36 µM | 4 µM | 1.37 µM | 5.85 µM | 1.64 µM | 5.34 µM | 1.06 µM | 2.44 µM |
| C[C@@H]1CN2[C@H]3[C@@H]1CC[C@]31CCC(=O)O[C@]1(C)[C@H]1CC[C@H]3CCC=C3[C@@H]12 | > 30 µM | > 30 µM | > 30 µM | > 30 µM | > 30 µM | > 30 µM | > 30 µM | > 30 µM | > 30 µM | > 30 µM | > 30 µM | > 30 µM | > 30 µM | > 30 µM | > 30 µM | > 30 µM | > 30 µM | > 30 µM | > 30 µM | > 30 µM |
| CC1(C)N=C(N)N=C(N)N1c1ccc(OCCCNC(=O)Nc2ccc(S(=O)(=O)F)cc2)c(Cl)c1 | 0.832 µM | > 100 µM | 0.79 µM | > 100 µM | 2.74 µM | 61.9 µM | 4.45 µM | > 100 µM | 5.65 µM | > 100 µM | 0.165 µM | > 73 µM | 0.82 µM | > 100 µM | 0.238 µM | > 100 µM | 0.211 µM | > 100 µM | 0.113 µM | > 65.3 µM |
| Cc1ccc(NC(=O)c2ccc(CN3CCN(C)CC3)cc2)cc1Nc1nc(-c2cccnc2)cs1 | 11.8 µM and > 10 µM | 26 µM and > 10 µM | 10.5 µM and 3.55 µM | 23.4 µM and > 10 µM | 11 µM and > 10 µM | 24.2 µM and > 10 µM | 11.7 µM and 4.15 µM | 24.7 µM and > 10 µM | 4.89 µM and 1.87 µM | 22 µM and 7.06 µM | 5.94 µM and 4.99 µM | 19.7 µM and > 10 µM | 16.3 µM and > 10 µM | 29.9 µM and > 10 µM | 5.97 µM and 2.84 µM | 21.7 µM and > 10 µM | 3.74 µM and 2.92 µM | 14 µM and > 10 µM | 2.25 µM and 0.4 µM | 6.96 µM and 5.47 µM |
| CCOC(=O)c1noc2c1CCc1c-2cn(Cc2ccc(OC)cc2)c1-c1cc(OC)c(OC)c(OC)c1 | 5.17 µM | > 100 µM | 0.369 µM | > 100 µM | 2.72 µM | > 100 µM | 3.51 µM | > 100 µM | > 100 µM | > 100 µM | 2.9 µM | > 100 µM | 2.53 µM | > 100 µM | 0.348 µM | > 100 µM | 0.542 µM | > 100 µM | 0.452 µM | 4.89 µM |
| Cn1cc(-c2ccc3nc(-c4ccc(CC(=O)Nc5cc(C(C)(C)C)no5)cc4)cnc3c2)cn1 | > 1.69 µM | > 3 µM | 0.0498 µM | > 3 µM | 0.0495 µM | > 3 µM | 0.0144 µM | > 3 µM | 0.0827 µM | > 3 µM | 0.112 µM | > 3 µM | 0.0465 µM | > 3 µM | – | > 3 µM | 0.0298 µM | > 3 µM | 0.735 µM | > 3 µM |
| O=S(=O)(NCCCNc1cc(-c2cn(-c3ccccc3)nc2-c2cccc(O)c2)ccn1)c1ccc(C(F)(F)F)cc1 | 1.92 µM | 3.53 µM | 2.28 µM | 4.83 µM | 1.56 µM | 3.9 µM | 3.08 µM | 10.7 µM | 2.49 µM | 7.08 µM | 1.93 µM | 4.57 µM | 1.95 µM | 3.78 µM | 2.11 µM | 6.58 µM | 1.28 µM | 3.26 µM | 2.52 µM | 6.2 µM |
